Data from PMC10498667 (Chemical Science, 2023).
Several values for one entry are separate records, joined by “and”; a condition that tells them apart may be missing. Equal values may be shown once.

What was measured:
[1] = molecular target: T1, Aβ42 (Homo sapiens, UniProt P05067); assay: ITC binding of 6 with Aβ42
T1 construct: purchased Peptide Institute, Inc. (Osaka, Japan)
Method: Distinct reactivities of 6 with metal-free Aβ and metal–Aβ were supported by various biophysical approaches. […] In the absence of Aβ, an increase or decrease in the absorption of the peaks at ca. 265, 300, 340, and 410 nm was monitored for 24 h (Fig. S18 ^†), which could be resulted from the oxidation of 6 in the presence of O2.[69] These spectral changes were accelerated upon incubation with Aβ, indicative of its impact on the oxidative modification of 6. Such transformation of 6 was also indicated in the presence of Cu(II) or Zn(II) with and without Aβ. To probe the interaction of 6 with Aβ, their binding properties were analyzed by isothermal titration calorimetry (ITC). For the association between 6 and Aβ, we recorded the heat change upon constant titration of the flavonoid into the solution of Aβ, where the dilution heat was also measured to avoid the heat change induced by its addition into the buffered solution. […] Thus, 6 can bind to Aβ with a micromolar binding affinity. […]
ITC. The solutions of Ab and 6 were subjected to degassing under vacuum for 3 min prior to loading into the instrument. […] […] The initial delay and the reference power were 60 s and 10 µcal/s, respectively. Dilution heat of 6 only was also measured under the same experimental conditions.
The ITC thermogram and binding isotherm were shown after the subtraction of the dilution heat.
The binding isotherm after baseline correction was fitted to the one-set-of-sites binding model using the MicroCal Origin software (version 7.0).
Expression and Purification of 15N-labeled Recombinant Ab42. 15N-labeled recombinant Ab42 was expressed in E. coli and purified as previously reported.27 Briefly, the DNA sequence coding the human Ab42 peptide was artificially constructed using codons preferred by E. coli with an extra Met residue at the N-terminal of the peptide. The DNA construct was inserted into pAED4 vector28 and the E. coli BL21 (DE3) pLysS strain (Novagen, Inc., Madison, WI, USA) was utilized in the protein expression. Transformed cells were incubated in LB media containing ampicillin and chloramphenicol until the cultures reach 3.5 McFarland turbidity. Cells were then harvested by centrifugation and the cell pellets were resuspended in M9 minimal media containing isotopically labeled 1 g/L 15N ammonium chloride, and induced by addition of 1 mM IPTG for 4 h. The peptide formed inclusion bodies in the bacterial cells. The purified inclusion bodies were dissolved in 20 mM NaOH and the peptide was further purified by repeated cycles of amyloid growth at low pH

[2] = tested on: human neuroblastoma SH-SY5Y (5Y) cells; assay: Cellular ROS detection assay (prooxidant activity); assay type: cell-based
Method: Cellular ROS Detection Assay. The prooxidant activity of flavonoids in living cells was measured by a cellular ROS detection assay kit (Abcam) following the manufacturer ’s protocol. The human neuroblastoma 5Y cells were maintained in media containing 50% v/v Dulbecco's Modified Eagle Medium and 50% v/v Nutrient Mixture F12 (phenol red-free DMEM/F12; GIBCO, Grand Island, NY, USA) supplemented with 10% v/v fetal bovine serum (GIBCO) and 100 U/mL penicillin-streptomycin (GIBCO). The cells were grown and maintained at 37 °C in a humidified atmosphere with 5% CO2. Cells were seeded in a 96-well plate (50,000 cells/100 µL). After 24 h incubation, a ROS-staining working solution (100 µL) was added to each well and the plate was incubated for 1 h at 37 °C. Cells were then treated with the samples {[flavonoid] = 0.01, 0.1, 0.5, and 1 mM (1% v/v DMSO)}. The cellular ROS levels upon the treatment of samples were measured based on the fluorescence intensity (lex/lem = 520/605 nm) of the wells that was detected after 2 h incubation and calculated, relative to that of the cells containing an equivalent amount of DMSO.
All experiments were performed in triplicate.

[3] = molecular target: T2, metal-free Aβ42 (Homo sapiens, UniProt P05067); assay: CD spectroscopy of metal-free Aβ42 (BeStSel); details: Aβ42 100 μM; flavonoid 200 μM; 37 °C; 24 h
T2 construct: purchased Peptide Institute, Inc. (Osaka, Japan)
T2 sequence (P05067 672-713 limits assumed): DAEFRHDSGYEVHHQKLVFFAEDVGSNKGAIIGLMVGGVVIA
Method: CD Spectroscopy. Metal-free Ab42 (100 µM) was incubated with and without 5, 4b, and 6 (200 µM) for 24 h in 20 mM HEPES, pH 7.4, 150 mM NaF at 37 °C with constant agitation (250 rpm).
CD spectra were collected in the range from 195 nm to 255 nm. The digital integration time, the bandwidth, and the scanning speed were 4 s, 2 nm, and 20 nm/min, respectively. Each spectrum was smoothed by Fourier transforms. The change in the secondary structure of metal-free Ab42 […]
treated with a flavonoid was analyzed following the previously reported BeStSel method.25 The measurements were conducted in triplicate. […]
mM HEPES, pH 7.4, 150 mM NaCl) with or without Ab40 (25 µM) in the absence and presence of CuCl2 or ZnCl2 (25 µM). Abs spectra of the samples were collected for 24 h at 37 °C.
6c [3-(3,4-Dihydroxyphenyl)-5,6,7-trimethoxy-4H-chromen-4-one]. […] After 4 h, the reaction mixture was extracted in a solution of ethyl acetate (EtOAc) and saturated sodium acetate (NaOAc; 0.12 g/mL). The organic layer was collected, washed with brine, dried with sodium sulfate ([…]), filtered, and concentrated. The crude product was purified by column chromatography (SiO2; EtOAc:hexanes = 1:1) to yield 6c [Rf = 0.3; yellow powder; 650 mg, 2.0 mmol (yield = 31%)] that was used for the next step without further purification. 1H NMR [400 MHz, […]

[4] = Solubility in EtOH (TEAC conditions); assay type: physicochemical; details: under TEAC experimental conditions

T1 sequence (P05067 672-713 limits assumed): as above

Question: For O=c1c(-c2ccc(O)c(O)c2)coc2cc(O)c(O)c(O)c12 [compound 6, 3-(3,4-dihydroxyphenyl)-5,6,7-trihydroxy-4H-chromen-4-one], which Kd ([1]; one-site model, 10 °C, read-out: Binding affinity) is on record?
Answer: ~19.5 µM

Question: And the TΔS ([1]; pH 7.4, 10 °C)?
Answer: 5.6 (±0.1) kcal mol^−1

Question: What about the ΔG ([1]; pH 7.4, 10 °C) of the same molecule?
Answer: −6.1 (±0.1) kcal mol^−1

Question: And the ΔH ([1]; pH 7.4, 10 °C)?
Answer: −0.5 (±0.1) kcal mol^−1

Question: And the “cellular ROS concentration / prooxidative activity” value ([2]; 0.01 and 0.1 mM flavonoid)?
Answer: No prooxidative activity

Question: And the “cellular ROS concentration / prooxidative activity” value ([2]; 0.5 and 1 mM flavonoid)?
Answer: increase in the amount of cellular ROS

Question: What about the “Random Coils (%) of metal-free Aβ42” value [3] of the same molecule?
Answer: 13.6%

Question: What about the “Turn (%) of metal-free Aβ42” value [3] of the same molecule?
Answer: 38.1%

Question: And the “α-Helix (%) of metal-free Aβ42” value [3]?
Answer: 1.5%

Question: And the “β-Sheet (%) of metal-free Aβ42” value [3]?
Answer: 46.7%

Question: What does the source list for O=c1cc(-c2ccccc2)oc2c(Cl)c(O)c(O)c(O)c12 [compound 5, 8-chlorobaicalein]?
Answer: Random Coils (%) of metal-free Aβ42 [3]: 19.7% and 19.7 (±15.5) %; Turn (%) of metal-free Aβ42 [3]: 12.5%; α-Helix (%) of metal-free Aβ42 [3]: 1.2%; β-Sheet (%) of metal-free Aβ42 [3]: 66.7% and 66.7 (±15.3) %

Question: Which results are given for O=c1c(-c2ccccc2)coc2cc(O)c(O)c(O)c12 [4b, 5,6,7-trihydroxyisoflavone]?
Answer: cellular ROS concentration / prooxidative activity ([2]; 0.01 and 0.1 mM flavonoid): no elevation of the cellular ROS concentration; cellular ROS concentration / prooxidative activity ([2]; 0.5 and 1 mM flavonoid): the prooxidative activity was observed; Random Coils (%) of metal-free Aβ42 [3]: 53.8% and 53.8 (±5.9) %; Turn (%) of metal-free Aβ42 [3]: 10.3%; α-Helix (%) of metal-free Aβ42 [3]: 0.4%; β-Sheet (%) of metal-free Aβ42 [3]: 35.5% and 35.5 (±5.7) %

Question: Which “solubility in ethanol (EtOH)” value [4] does the source give for O=c1cc(-c2ccccc2)oc2cc(O)cc(O)c12 [compound 1, chrysin] here?
Answer: limited solubility
